Entries after “also recorded” stand apart in the source; their conditions may differ.
What was measured:
[1] = test system: Aβ40 and Aβ42 levels in mAPP N2a cells; assay: Sandwich ELISA of soluble Aβ40 and Aβ42 levels in mAPP N2a cells; assay type: cell-based, mouse; settings: ligand 1-treated mAPP N2a cells vs untreated mAPP cells
Excerpt: ELISA Ligand based inhibition of BACE1 activity, Aβ 40 and 42. BACE1 activity, Levels of Aβ40 and 42. To determine whether ligand 1 lowers BACE1 activity and reducing the Aβ40 and Aβ42 levels, the inventors measured BACE1 activity, Aβ40 and Aβ42 levels in mutant APP cells (N2a+mutant cDNA transfected) treated with ligand 1 using Sandwich ELISA.
The N2a cells grown for 6 days in a serum-free medium (1:1 mixture of DMEM and OptiMEM, plus penicillin and streptomycin (Invitrogen, Carlsbad, CA, USA) until the cells developed neuronal processes. As shown in (FIG. 10), these cells were used for 4 groups—one control group and 3 treatment groups. 1) untreated N2a cells (the control group), 2) N2a cells treated with ligand 1 (N2a+ligand 1), 3) N2a cells transfected mAPP with the (lipofectamine) (20 μM final concentration for 6 hrs (mAPP), 4) N2a cells transfected with mAPP cDNA for 6 hrs, treated with ligand 1 (mAPP+ligand 1 treatment group), N2a cells treated with ligand 1 for 24 hrs and then treated with the mAPP cDNA for 6 hrs (ligand 1+mAPP treatment group). […]
ELISA Ligand based BACE1 inhibition of Aβ 40 and 42. […] For each sample, Aβ1-40 and Aβ1-42 were measured with commercial colorimetric ELISA kits (Biosource International, Camarillo, CA, USA) specific for human. […] Protein concentrations of the homogenates were determined following the […], and Aβ was expressed as pg Aβ/mg protein.

N2a cells = assay: Transmission electron microscopy of mitochondrial number and length; assay type: cell-based, mouse; settings: TEM
Excerpt: Transmission electron microscopy. To determine the effects of ligand 1 on the number and length of mitochondria, the inventors used transmission electron microscopy on cells with untreated N2a cells, […], mAPP, and mAPP+ligand 1.
Transmission electron microscopy of mitochondria. To determine the protective effects ligand 1 the number and morphology of mitochondria and the rescue effects of Ligand 1, on Aβ induced mitochondrial toxicity. The inventors conducted transmission electron microscopy (TEM) of N2a cells from control and experimental treatments (n=4). Treated and untreated N2a cells were fixed in 100 mM sodium cacodylate (pH 7.2), 2.5% glutaraldehyde, 1.6% paraformaldehyde, 0.064% picric acid, and 0.1% ruthenium red. They were gently washed and post-fixed for 1 hr in 1% osmium tetroxide plus […] potassium ferricyanide, in 100 mM sodium cacodylate, pH 7.2. After a thorough rinsing in water, the N2a cells were dehydrated, infiltrated overnight in 1:1 acetone:Epon 812, infiltrated for 1 hr with 100% Epon 812 resin, and embedded in the resin. After polymerization, 60- to 80-nm thin sections were cut on a Reichert ultramicrotome and stained for 5 min in lead citrate. […] The numbers of mitochondria were counted in the control N2a cells (number of cells=50) and experimental groups (number of cells per group=40), and statistical significance was determined, using one-way ANOVA.

[(6As,8S,10aS,12aS)-10a, 12a-dimethyl-2-oxo-3,4,4a,4b,5,6,6a,7,8,9,10,10b,11,12-tetradecahydro-1H-naphtho[2,1-f]quinolin-8-yl] 4-[4-[bis(2-chloroethyl)amino]phenyl]butanoate [Ligand 1]
Aβ42 level ([1]; P=0.005): significantly lower; also recorded: reduced | Aβ40 level ([1]; soluble, P=0.01): decreased; also recorded: reduced | Mitochondrial length (N2a cells; cells treated with ligand 1 relative to untreated cells): significantly increased | Number of mitochondria (N2a cells; mAPP+ligand 1 vs mAPP cells, P=0.01): reduced

Source: US12042492B2 (priority 2020, dated 2024)
